B1: HS1: TG2 mutant K600A, R601A, K602A (protein, UniProt P21980 2-687, looked up, variant K600A R601A K602A)
Protein-glutamine …: AEELVLERCDLELETNGRDHHTADLCREKLVVRRGQPFWLTLHFEGRNYEASVDSLTFSVVTGPAPSQEAGTKARFPLRDAVEEGDWTATVVDQQDCTLSLQLTTPANAPIGLYRLSLEASTGYQGSSFVLGHFILLFNAWCPADAVYLDSEEERQEYVLTQQGFIYQGSAKFIKNIPWNFGQFEDGILDICLILLDVNPKFLKNAGRDCSRRSSPVYVGRVVSGMVNCNDDQGVLLGRWDNNYGDGVSPMSWIGSVDILRRWKNHGCQRVKYGQCWVFAAVACTVLRCLGIPTRVVTNYNSAHDQNSNLLIEYFRNEFGEIQGDKSEMIWNFHCWVESWMTRPDLQPGYEGWQALDPTPQEKSEGTYCCGPVPVRAIKEGDLSTKYDAPFVFAEVNADVVDWIQQDDGSVHKSINRSLIVGLKISTKSVGRDEREDITHTYKYPEGSSEEREAFTRANHLNKLAEKEETGMAMRIRVGQSMNMGSDFDVFAHITNNTAEEYVCRLLLCARTVSYNGILGPECGTKYLLNLNLEPFSEKSVPLCILYEKYRDCLTESNLIKVRALLVEPVINSYLLAERDLYLENPEIKIRILGEPKQAAALVAEVSLQNPLPVALEGCTFTVEGAGLTEEQKTVEIPDPVEAGEEVKVRMDLLPLHMGLHKLVVNFESDKLKAVKGFRNVIIGPA

Legend:
p-ERK1/2 = experiment: Western blotting of p-ERK1/2 after cell adhesion assay; type: cell-based, human; settings: HOB on FN, RGD, peptide 100 μg/ml
Procedure: (§1) Cell lysates containing 50 μg of protein were dissolved in 2× Laemmli buffer (Sigma-Aldrich Ltd, Dorset, UK) and separated by SDS-PAGE. Western blotting was performed using specific primary antibodies as described above. Primary antibodies were detected using the appropriate secondary antibody conjugated to horse radish peroxidase. Detection was by chemiluminescence (Amersham ECL™ Western Blotting System, GE Healthcare, UK).
(§2) The cell adhesion assay was carried out as previously described (Wang et al., 2010). […] Images of stained cells from non-overlapping fields of view were photographed at 20× magnification and analyzed using the imaging analysis program Scion Image (National Institute of Health). Cell attachment and spreading were quantified, and the number of cells per image was assessed as described previously (Telci et al., 2008). […] The mean number of attached cells form three wells was calculated and that of the control was considered as 100%. The mean number of attached cells (cell attachment) for each sample was then expressed as the percentage of cell attachment on FN. The mean percentage of attached cells that are spread (cell spreading) for each sample was determined separately, and the mean percentage of spread cells on FN control was expressed as 100%. […]

p-397 FAK = experiment: Western blotting of p-397 FAK after cell adhesion assay; type: cell-based, human; settings: HOB on FN, RGD, peptide 100 μg/ml
Procedure: as §1, §2

HOB cells = experiment: Cell adhesion assay (attachment and spreading) on FN or TG-FN matrix with RGD or RAD peptide; type: cell-based, human; settings: for effect on attachment and spreading of HOB cells on TG-FN in the presence of the RGD peptide: TG-FN matrix, peptide 100-300 μg/ml
Procedure: The cell adhesion assay was carried out as previously described (Wang et al., 2010). Briefly, 96-well plastic tissue culture plates were coated with 5 μg/ml FN in 50 mM Tris-HCl, pH 7.4 at 4° C. overnight, after washing three times with 100 μl of 50 mM Tris-HCl, pH7.4, gplTG (20 μg/ml) in 2 mM EDTA in PBS, pH 7.4 was added to the wells for 1 h at 37° C. and the wells were washed three times with 50 mM Tris-HCl, pH7.4. Serum-starved (for 16 h) HOB cells with different treatments as introduced below in serum-free medium were detached by trypsinization and then treated with trypsin inhibitor. Cells were washed three times with serum free medium and seeded onto either FN or TG-FN matrix for 20-40 min. Peptides P1 or scrambled P1 (P1s), were added at concentrations between 100 μg/ml and 300 μg/ml. […] Attached cells were washed once with PBS, pH 7.4 and then fixed with 3.7% paraformaldehyde, further permeabilised with 0.1% (v/v) Triton® X-100 detergent in PBS, and co-stained with May-Grunwald and Giemsa stains as described previously (Jones et al., 1997). Images of stained cells from non-overlapping fields of view were photographed at 20× magnification and analyzed using the imaging analysis program Scion Image (National Institute of Health). Cell attachment and spreading were quantified, and the number of cells per image was assessed as described previously (Telci et al., 2008). Cell attachment on FN without peptide was considered as the control value for all the experiments unless stated otherwise. The mean number of attached cells form three wells was calculated and that of the control was considered as 100%. The mean number of attached cells (cell attachment) for each sample was then expressed as the percentage of cell attachment on FN. The mean percentage of attached cells that are spread (cell spreading) for each sample was determined separately, and the mean percentage of spread cells on FN control was expressed as 100%. The mean percentage of spread cells for each sample was then normalised against that of FN control Cell attachment on FN without the RGD peptide was considered as the control value for most of the experiments unless stated otherwise The mean number of attached cells from three wells was calculated and that of the control was considered as 100%. The mean number of attached cells (cell attachment) for each sample was then expressed as the percentage of cell attachment on FN. The mean percentage of attached cells that are spread (cell spreading) for each sample was determined separately, and the mean percentage of spread cells on the FN control was expressed as 100%. The mean percentage of spread cells for each sample was then normalised against that of FN control Cell pre-treatments included: PKCα inhibitor Go6976 (5 μM) or GK21 peptide (8 μM) for 1 h in serum-free medium prior to cell detachment; heparinase (15 mU/ml) or chondroitinase (15 mU/ml) to cells in suspension in serum free medium for 1 h. For the detection of the signalling molecules via Western blotting, the cell adhesion assay was performed in 60 mm Petri dishes and cells were collected into cell lysis buffer (Santa Cruz, UK) as described previously and pre-cleared by centrifugation at 300×g for 10 min. Western blotting was performed with specific anti-p-397 FAK or p-ERK1/2 antibodies. Membranes were stripped (Telci et al., 2008) and total FAK and ERK1/2 detected using anti-FAK and anti-ERK1/2 antibodies as listed in Table 2, while α-tubulin was used as an equal loading standard (Wang et al., 2011).
Cell adhesion and spreading assays were performed as described above in Example 1 method ‘Cell adhesion assay’

[1] = Binding of TG2 to heparin SEPHAROSE, elution with NaCl gradient; settings: compared with wt TG2
Procedure: HEK cells, transiently transfected with wild-type and mutant TG2 were washed twice with ice cold PBS, pH 7.4 and lysed by the addition of 150 μl of 20 mM Tris-HCl pH 7.4, 10 mM EGTA, 2 mM EDTA, 1 mM NaF and 1 mM Na3VO4. After clarification by centrifugation, lysates were mixed with 450 μl of 50 mM Tris-HCl, 1 mM EDTA, 1 mM DTT, pH 7.5 and applied to a 5 ml Heparin SEPHAROSE® column (GE Healthcare) equilibrated in 50 mM Tris-HCl, 1 mM EDTA, 1 mM DTT pH 7.5 (buffer) at a flow rate of 1 ml/min. For the analysis of GTP-bound TG2 (closed conformation), lysates were pre-incubated for 1 h at room temperature with 0.5 mM GTP in 50 mM Tris-HCl, 2 mM MgCl2, 1 mM EDTA, 1 mM DTT pH 7.5. For the analysis of inhibitor-reacted TG2 (open conformation), lysates were incubated with 0.5 mM of irreversible inhibitor R281 (Griffin et al., 2008) and 10 mM CaCl2. The column was washed with 25 ml of buffer and protein was eluted with a linear gradient of increasing NaCl concentration (0-1M) in buffer. Fractions were assayed for TG2 activity and analysed for the presence of TG2 antigen by SDS-PAGE and Western blotting using CUB7402.

NIH 3T3 cells = experiment: Detection of TG2 at cell surface (biotinylation), in ECM and in culture medium of transfected cells; type: cell-based, mouse; settings: transfected NIH 3T3 cells, biotinylation and Western blot, vs wild-type TG2
Procedure: Cell surface proteins were labelled by biotinylation as described previously (Wang et al., 2010). Briefly, cell monolayers were rinsed three times with ice-cold PBS pH 8.0 and labelled with 0.8 mM sulfo-NHS-LC-biotin dissolved in PBS pH 8.0 at 4° C. for 20 min. Cells were then washed with 50 mM Tris-HCl, pH 8.0 and lysed with 1% SDS at 4° C. in PBS pH8.0. Following denaturation at 95° C., cell lysates were clarified by centrifugation at 14,000×g at 20° C. and 200 μg of protein was incubated overnight at 4° C. with NEUTRAVIDIN® avidin protein-Agarose resin. After washing three times with PBS pH 8.0, the biotin-labelled proteins were dissolved in 2× Laemmli buffer separated by SDS-PAGE and subjected to Western blotting.
Following transfection, cells were incubated for 24 h with 10% (v/v) serum, which was replaced with 1% (v/v) serum and TG2 expression was allowed to proceed for a further 48 h. Proteins from 1 ml of medium were precipitated by the addition of ice cold 20% (w/v) trichloroacetic acid (TCA) to a final concentration of 10% (w/v) Pelleted proteins were then washed once with ice cold 10% (w/v) TCA, ethanol-acetone (1:1) and acetone, and resuspended in 2× Laemmli buffer (Sigma-Aldrich, UK) and analysed by SDS-PAGE and Western blot analysis using monoclonal anti-TG2 antibody (Cub7402). The remaining cells were detached with 2 mM EDTA in PBS, pH 7.4 and the ECM was extracted with 0.1% (w/v) deoxycholate in PBS, pH 7.4. The residual deoxycholate-insoluble ECM proteins were dissolved in 2× Laemmli buffer for further analysis by SDS-PAGE and Western blotting using Cub7402.

[2] = HOB cells on FN, RGD peptide, tested 0.01-200 μg/ml

Molecule	phosphorylation of p-ERK1/2 (p-ERK1/2)	phosphorylation of p-FAK397 (p-397 FAK)	effect on binding of cells to FN alone (HOB cells; FN matrix, 100-300 μg/ml, compared to P1s)	concentration at which compensation of RGD-induced loss of cell adhesion started (HOB cells; [2]) [µg/mL]	concentration of maximum compensation of RGD-induced loss of cell adhesion (HOB cells; [2]) [µg/mL]	compensatory effect on RGD-induced loss of cell adhesion after heparinase pre-treatment (HOB cells; HOB cells treated with heparinase 15 mU/ml (not chondroitinase), FN)	compensatory effect on RGD-induced loss of cell adhesion after syndecan-4 siRNA (HOB cells; HOB cells, syndecan-4 siRNA (around 50% reduction in protein expression))	effect on attachment and spreading of HOB cells on TG-FN in the presence of the RGD peptide (HOB cells)	binding to heparin SEPHAROSE (in words) [1]	presence on the cell surface (NIH 3T3 cells)
NPKFLKNAGRDCSRRSS (listed as Homo sapiens) [P1]	paralleled by the phosphorylation of p-FAK397 and p-ERK1/2	paralleled by the phosphorylation of p-FAK397	small but significant enhancement of adhesion	5 to 10	50 to 100	abolished	comparable reduction in the compensatory effect	small, but not significant dose-dependent negative effect		
FNRADLKPRCGSSNKSR (Scrambled Control Peptide) [P1s, scrambled control peptide for P1, reference compound]	not found	not found						almost no effect		
B1									bound heparin identically to TG2	greater levels

Source: patent publication US9657110B2, “Polypeptides and use thereof” (ASTON UNIVERSITY, priority 2011, dated 2017)
